Experimental data published in paper PMC8480901 (PLoS ONE, 2021).
Values joined by “and” are separate entries in the source; they are usually repeats but may differ in a detail not shown here. Equal entries are not always repeated. “Also recorded” adds a separate entry of the source.

Tested on: LPS-induced lung neutrophilia
Assay: LPS-induced lung neutrophilia: total and neutrophil cell counts in BALF
Format: in vivo, BALB/c mice
Conditions: for total cell and neutrophil recruitment to the lungs (measured in BALF): 10, 30, and 100 mg/kg SC 30 min before intranasal LPS, 4 hours postchallenge, vs vehicle control; for Neutrophils in BALF: % reduction / Total cells/white blood cells in BALF: % reduction / Neutrophils in BALF, Mean / Total cells/white blood cells in BALF, Mean / Neutrophils in BALF, individual mice / Total cells/white blood cells in BALF, individual mice: LPS; for Neutrophils in BALF, Mean / Total cells/white blood cells in BALF, Mean / Neutrophils in BALF, individual mice / Total cells/white blood cells in BALF, individual mice: BALF 4 h after LPS
Procedure: Six-week-old male BALB/c mice (Charles River, Calco, Italy) were singly housed in a temperature-controlled (22°C±2°C) environment with a 12:12-hour light:dark cycle and free access to food and water. Mice were given ≥7 days for acclimation before all procedures. […] One day before the start of experimental procedures, all animals were randomized into 6 groups (n = 8/group). Animal group assignment was not blinded.
LPS lyophilized powder (2 mg; Sigma-Aldrich Chemie GmbH, Munich, Germany) from Escherichia coli (O111:B4) was dissolved in 10 mL cold saline (0.9%; Pliva, Zagreb, Croatia), vortexed, and further diluted by mixing 2 mL of this solution with 2 mL saline to reach a final concentration of 5 μg LPS/50 μL saline. […] Ketamine hydrochloride (Narketan 10) was acquired from Vetoquinol (Bern, Switzerland), and xylazine hydrochloride (Rompun, 2%) was acquired from Bayer (Leverkusen, Germany).
To induce pulmonary neutrophilia, mice in the control group received intranasal (IN) 50 μL saline, and all other animals received 5 μg LPS/50 μL saline IN per mouse.
Tracheostomy was performed, and a Buster cat catheter (1.0 × 130 mm; Kruuse, Langeskov, Denmark), shortened to 3 cm, was clamped into the trachea. The lungs were washed 3 times with cold phosphate-buffered saline (PBS; Sigma-Aldrich Chemie GmbH) in a total volume of 1 mL (0.4, 0.3, and 0.3 mL). The collected BALF samples were centrifuged (1303×g, 5 min, 4°C), and resulting cell pellets were each resuspended in 600 μL PBS. Samples were immediately analyzed for total and differential neutrophil cell counts via automated hematology analyzer (XT-2000iV; Sysmex, Kobe, Japan).
Differences between treated versus vehicle groups were determined using the Mann-Whitney test and were considered statistically significant when P<0.05. Outliers in the analysis of cytokine and chemokine concentrations were identified using the Grubbs test. No criteria were set for inclusion/exclusion of animals during the experiment or data points during the analysis.

[1] = Experiment 1, 10 mg/kg SC, listed as Lef, 10 mg/kg
[2] = Experiment 1, 30 mg/kg SC, listed as Lef, 30 mg/kg
[3] = Experiment 1, 100 mg/kg SC, listed as Lef, 100 mg/kg
[4] = Experiment 2, 35 mg/kg SC, listed as Lef, 35 mg/kg
[5] = Experiment 2, 70 mg/kg SC, listed as Lef, 70 mg/kg
[6] = Experiment 2, 140 mg/kg SC, listed as Lef, 140 mg/kg
[7] = Experiment 1, 1 mg/kg (IP), 1 mg/kg
[8] = Experiment 2, 0.5 mg/kg (PO), 0.5 mg/kg
[9] = Experiment 1, 10 mg/kg SC, listed as Azi, 10 mg/kg
[10] = Experiment 1, 30 mg/kg SC, listed as Azi, 30 mg/kg
[11] = Experiment 1, 100 mg/kg SC, listed as Azi, 100 mg/kg

C=C[C@]1(C)C[C@@H](OC(=O)CS[C@@H]2CC[C@@H](N)C[C@H]2O)[C@]2(C)[C@H](C)CC[C@]3(CCC(=O)[C@H]32)[C@@H](C)[C@@H]1O [Lefamulin]
total cell and neutrophil recruitment to the lungs (measured in BALF): dose-dependent reduction; also recorded: almost complete reduction | Neutrophils in BALF: % reduction (Experiment 1, 10 mg/kg SC): 37% | Total cells/white blood cells in BALF: % reduction (Experiment 1, 10 mg/kg SC): 50% | Neutrophils in BALF, Mean (Experiment 1, 10 mg/kg SC): 3.3e+08 L⁻¹ | Total cells/white blood cells in BALF, Mean (Experiment 1, 10 mg/kg SC): 5e+08 L⁻¹ | Neutrophils in BALF, individual mice [1]: 4.7e+08 L⁻¹ and 2.2e+08 L⁻¹ and 1.9e+08 L⁻¹ and 3.7e+08 L⁻¹ and 3.1e+08 L⁻¹ and 1e+08 L⁻¹ and 4.5e+08 L⁻¹ and 4.9e+08 L⁻¹ | Total cells/white blood cells in BALF, individual mice [1]: 6.6e+08 L⁻¹ and 5.9e+08 L⁻¹ and 6.1e+08 L⁻¹ and 3e+08 L⁻¹ and 5.1e+08 L⁻¹ and 6.3e+08 L⁻¹ and 5e+08 L⁻¹ and 1.7e+08 L⁻¹ | Neutrophils in BALF: % reduction (Experiment 1, 30 mg/kg SC): 59% | Total cells/white blood cells in BALF: % reduction (Experiment 1, 30 mg/kg SC): 78% | Neutrophils in BALF, Mean (Experiment 1, 30 mg/kg SC): 2.2e+08 L⁻¹ | Total cells/white blood cells in BALF, Mean (Experiment 1, 30 mg/kg SC): 4.2e+08 L⁻¹ | Neutrophils in BALF, individual mice [2]: 2.1e+08 L⁻¹ and 3.8e+08 L⁻¹ and 1.2e+08 L⁻¹ and 2.5e+08 L⁻¹ and 1.7e+08 L⁻¹ and 2.3e+08 L⁻¹ and 1.6e+08 L⁻¹ | Total cells/white blood cells in BALF, individual mice [2]: 2.7e+08 L⁻¹ and 3.7e+08 L⁻¹ and 3.5e+08 L⁻¹ and 6.6e+08 L⁻¹ and 2.6e+08 L⁻¹ and 3.9e+08 L⁻¹ and 3.8e+08 L⁻¹ | Neutrophils in BALF: % reduction (Experiment 1, 100 mg/kg SC): 70% | Total cells/white blood cells in BALF: % reduction (Experiment 1, 100 mg/kg SC): 100% | Neutrophils in BALF, Mean (Experiment 1, 100 mg/kg SC): 1.6e+08 L⁻¹ | Total cells/white blood cells in BALF, Mean (Experiment 1, 100 mg/kg SC): 3.5e+08 L⁻¹ | Neutrophils in BALF, individual mice [3]: 1.4e+08 L⁻¹ and 1.8e+08 L⁻¹ and 1.2e+08 L⁻¹ and 1.3e+08 L⁻¹ and 2.8e+08 L⁻¹ and 1.7e+08 L⁻¹ | Total cells/white blood cells in BALF, individual mice [3]: 3.3e+08 L⁻¹ and 2.4e+08 L⁻¹ and 3.1e+08 L⁻¹ and 3.4e+08 L⁻¹ and 2.3e+08 L⁻¹ and 3.9e+08 L⁻¹ and 6.6e+08 L⁻¹ | Neutrophils in BALF: % reduction (Experiment 2, 35 mg/kg SC): 64% | Total cells/white blood cells in BALF: % reduction (Experiment 2, 35 mg/kg SC): 69% | Neutrophils in BALF, Mean (Experiment 2, 35 mg/kg SC): 2.2e+08 L⁻¹ | Total cells/white blood cells in BALF, Mean (Experiment 2, 35 mg/kg SC): 5.5e+08 L⁻¹ | Neutrophils in BALF, individual mice [4]: 2e+08 L⁻¹ and 1.6e+08 L⁻¹ and 2.4e+08 L⁻¹ and 2.2e+08 L⁻¹ and 3.4e+08 L⁻¹ and 1.9e+08 L⁻¹ and 3.1e+08 L⁻¹ and 1.2e+08 L⁻¹ | Total cells/white blood cells in BALF, individual mice [4]: 9.1e+08 L⁻¹ and 2e+08 L⁻¹ and 7e+08 L⁻¹ and 4.4e+08 L⁻¹ and 4.6e+08 L⁻¹ and 3.7e+08 L⁻¹ and 7.3e+08 L⁻¹ and 5.5e+08 L⁻¹ | Neutrophils in BALF: % reduction (Experiment 2, 70 mg/kg SC): 77% | Total cells/white blood cells in BALF: % reduction (Experiment 2, 70 mg/kg SC): 91% | Neutrophils in BALF, Mean (Experiment 2, 70 mg/kg SC): 1.5e+08 L⁻¹ | Total cells/white blood cells in BALF, Mean (Experiment 2, 70 mg/kg SC): 4.3e+08 L⁻¹ | Neutrophils in BALF, individual mice [5]: 1.8e+08 L⁻¹ and 1.7e+08 L⁻¹ and 1.1e+08 L⁻¹ and 1e+08 L⁻¹ and 2.1e+08 L⁻¹ and 1.2e+08 L⁻¹ and 9e+07 L⁻¹ | Total cells/white blood cells in BALF, individual mice [5]: 4.6e+08 L⁻¹ and 2.1e+08 L⁻¹ and 4.3e+08 L⁻¹ and 4.4e+08 L⁻¹ and 3.3e+08 L⁻¹ and 3e+08 L⁻¹ and 5.8e+08 L⁻¹ and 6.7e+08 L⁻¹ | Neutrophils in BALF: % reduction (Experiment 2, 140 mg/kg SC): 77% | Total cells/white blood cells in BALF: % reduction (Experiment 2, 140 mg/kg SC): 107% | Neutrophils in BALF, Mean (Experiment 2, 140 mg/kg SC): 1.5e+08 L⁻¹ | Total cells/white blood cells in BALF, Mean (Experiment 2, 140 mg/kg SC): 3.4e+08 L⁻¹ | Neutrophils in BALF, individual mice [6]: 1.6e+08 L⁻¹ and 1.4e+08 L⁻¹ and 1.2e+08 L⁻¹ and 1.7e+08 L⁻¹ and 9e+07 L⁻¹ and 2e+08 L⁻¹ | Total cells/white blood cells in BALF, individual mice [6]: 4.6e+08 L⁻¹ and 3.9e+08 L⁻¹ and 2.6e+08 L⁻¹ and 2.9e+08 L⁻¹ and 3.6e+08 L⁻¹ and 3.3e+08 L⁻¹ and 4.4e+08 L⁻¹ and 2e+08 L⁻¹

C[C@@H]1C[C@H]2[C@@H]3CCC4=CC(=O)C=C[C@]4(C)[C@@]3(F)[C@@H](O)C[C@]2(C)[C@@]1(O)C(=O)CO [Dexamethasone]
Neutrophils in BALF: % reduction (Experiment 1, 1 mg/kg (IP)): 47% | Total cells/white blood cells in BALF: % reduction (Experiment 1, 1 mg/kg (IP)): 75% | Neutrophils in BALF, Mean (Experiment 1, 1 mg/kg (IP)): 2.8e+08 L⁻¹ | Total cells/white blood cells in BALF, Mean (Experiment 1, 1 mg/kg (IP)): 4.3e+08 L⁻¹ | Neutrophils in BALF, individual mice [7]: 2.5e+08 L⁻¹ and 1.2e+08 L⁻¹ and 2.9e+08 L⁻¹ and 2.6e+08 L⁻¹ and 3e+08 L⁻¹ and 3.9e+08 L⁻¹ and 3.1e+08 L⁻¹ | Total cells/white blood cells in BALF, individual mice [7]: 3.9e+08 L⁻¹ and 3.8e+08 L⁻¹ and 4.1e+08 L⁻¹ and 2.3e+08 L⁻¹ and 4.5e+08 L⁻¹ and 5.2e+08 L⁻¹ and 6.3e+08 L⁻¹ | Neutrophils in BALF: % reduction (Experiment 2, 0.5 mg/kg (PO)): 61% | Total cells/white blood cells in BALF: % reduction (Experiment 2, 0.5 mg/kg (PO)): 78% | Neutrophils in BALF, Mean (Experiment 2, 0.5 mg/kg (PO)): 2.4e+08 L⁻¹ | Total cells/white blood cells in BALF, Mean (Experiment 2, 0.5 mg/kg (PO)): 5e+08 L⁻¹ | Neutrophils in BALF, individual mice [8]: 2.5e+08 L⁻¹ and 2e+08 L⁻¹ and 3.4e+08 L⁻¹ and 1.9e+08 L⁻¹ and 2.3e+08 L⁻¹ and 3.1e+08 L⁻¹ and 1.7e+08 L⁻¹ | Total cells/white blood cells in BALF, individual mice [8]: 7e+08 L⁻¹ and 2.9e+08 L⁻¹ and 5.5e+08 L⁻¹ and 4.4e+08 L⁻¹ and 7.7e+08 L⁻¹ and 3.6e+08 L⁻¹

CC[C@H]1OC(=O)[C@H](C)[C@@H](O[C@H]2C[C@@](C)(OC)[C@@H](O)[C@H](C)O2)[C@H](C)[C@@H](O[C@@H]2O[C@H](C)C[C@H](N(C)C)[C@H]2O)[C@](C)(O)C[C@@H](C)CN(C)[C@H](C)[C@@H](O)[C@]1(C)O [Azithromycin]
total cell and neutrophil recruitment to the lungs (measured in BALF): significant dose-dependent reductions | Neutrophils in BALF: % reduction (Experiment 1, 10 mg/kg SC): 42% | Total cells/white blood cells in BALF: % reduction (Experiment 1, 10 mg/kg SC): 68% | Neutrophils in BALF, Mean (Experiment 1, 10 mg/kg SC): 3e+08 L⁻¹ | Total cells/white blood cells in BALF, Mean (Experiment 1, 10 mg/kg SC): 4.4e+08 L⁻¹ | Neutrophils in BALF, individual mice [9]: 3.8e+08 L⁻¹ and 3.6e+08 L⁻¹ and 3e+08 L⁻¹ and 2.9e+08 L⁻¹ and 2.7e+08 L⁻¹ and 8e+07 L⁻¹ and 3.4e+08 L⁻¹ | Total cells/white blood cells in BALF, individual mice [9]: 1.5e+08 L⁻¹ and 4.9e+08 L⁻¹ and 5.5e+08 L⁻¹ and 6.2e+08 L⁻¹ and 3.6e+08 L⁻¹ and 5.1e+08 L⁻¹ and 3.8e+08 L⁻¹ | Neutrophils in BALF: % reduction (Experiment 1, 30 mg/kg SC): 45% | Total cells/white blood cells in BALF: % reduction (Experiment 1, 30 mg/kg SC): 71% | Neutrophils in BALF, Mean (Experiment 1, 30 mg/kg SC): 2.9e+08 L⁻¹ | Total cells/white blood cells in BALF, Mean (Experiment 1, 30 mg/kg SC): 4.4e+08 L⁻¹ | Neutrophils in BALF, individual mice [10]: 2.5e+08 L⁻¹ and 5.9e+08 L⁻¹ and 2.3e+08 L⁻¹ and 2.1e+08 L⁻¹ and 4.6e+08 L⁻¹ and 1.7e+08 L⁻¹ and 2e+08 L⁻¹ | Total cells/white blood cells in BALF, individual mice [10]: 2.5e+08 L⁻¹ and 3.1e+08 L⁻¹ and 4.1e+08 L⁻¹ and 8.2e+08 L⁻¹ and 4.6e+08 L⁻¹ and 3.8e+08 L⁻¹ and 5.6e+08 L⁻¹ | Neutrophils in BALF: % reduction (Experiment 1, 100 mg/kg SC): 57% | Total cells/white blood cells in BALF: % reduction (Experiment 1, 100 mg/kg SC): 95% | Neutrophils in BALF, Mean (Experiment 1, 100 mg/kg SC): 2.3e+08 L⁻¹ | Total cells/white blood cells in BALF, Mean (Experiment 1, 100 mg/kg SC): 3.7e+08 L⁻¹ | Neutrophils in BALF, individual mice [11]: 3.6e+08 L⁻¹ and 2.2e+08 L⁻¹ and 1.7e+08 L⁻¹ and 1.3e+08 L⁻¹ and 3.4e+08 L⁻¹ and 2.5e+08 L⁻¹ and 1.5e+08 L⁻¹ and 1.9e+08 L⁻¹ | Total cells/white blood cells in BALF, individual mice [11]: 2.8e+08 L⁻¹ and 3.1e+08 L⁻¹ and 4.9e+08 L⁻¹ and 3.6e+08 L⁻¹ and 4.4e+08 L⁻¹ and 2.2e+08 L⁻¹ and 5.2e+08 L⁻¹ and 3.3e+08 L⁻¹
